Results reported in patent EP0004358A1, “N-oxacyclylalkyl piperidines, process for their preparation, pharmaceutical compositions containing these compounds” (priority 1978, dated 1979).
Where a name gives a salt, the structure may show the parent alone.

Legend:
biogener Amine = experiment: Uptake inhibition of biogenic amines (statement, no method)
antihistaminische = experiment: Antihistaminic action (statement, no method)
anticholinergische = experiment: Anticholinergic action (statement, no method)
männlichen Albinoratten = experiment: Conditioned shock avoidance (lever pressing) in rats; format: in vivo, Ratte; conditions: for Schockvermeidungsreaktion der Ratte: doses down to 2,5 mg/kg/Tag
Description: Die Verbindungen der Erfindung zeigen wertvolle pharmakologische, z.B. stimulierende und antidepressive Wirkungen. Diese können in Tierversuchen, vorzugsweise an Säugetieren, wie Ratten oder Affen, als Testobjekte nachgewiesen werden. Die Verbindungen der Erfindung können ihnen enteral, z.B. oral, oder parenteral, z.B. subkutan, intraperitoneal oder intravenös, z.B. in Form von wässerigen Lösungen oder Stärke enthaltenden Suspensionen, verabreicht werden. Die verwendete Dosis kann in einem Bereich von ungefähr zwischen 0,1 und 100 mg/kg/Tag, vorzugsweise ungefähr 1 und 50 mg/kg/Tag, insbesondere ungefähr 5 und 25 mg/kg/Tag liegen. Die genannten stimulierenden und antidepressiven Wirkungen können z.B. an männlichen Albinoratten beobachtet werden. Die Tiere haben freien Zugang zu Futter und Wasser, mit Ausnahme der Versuchsdauer. Die Untersuchung des Tierverhaltens wird in normierten, schallisolierten Konditionierungskammern, welche einen Schalthebel enthalten, durchgeführt. Gemäss dem Test werden die Ratten durch das Bodengitter der Kammer elektrischen Schocks ausgesetzt. Der Hebel ist an eine programmierte Einrichtung, welche die Abgabe von elektrischen Schocks reguliert, angeschlossen. Die Anzahl der Betätigung des Hebels und die Anzahl der erlittenen Schocks werden registriert. Die Ratten werden vorher dazu trainiert, diesem elektrischen Impuls durch Drücken der Taste auszuweichen. Dann wird der Apparat so eingestellt, dass jede Hebelbetätigung den Schockeintritt um 30 Sekunden verschiebt. Vergisst das Tier den Hebel innerhalb dieses Zeitintervalls zu drücken, so werden alle 15 Sekunden kurze elektrische Schocks abgegeben, bis das Tier den Hebel wieder betätigt. Vor jeder Testperiode werden die Ratten, um sich zu erwärmen, 15 Minuten in den Testkammern gehalten. Während dieser Zeit wird die Anzahl der Hebelbetätigungen nicht registriert. Unmittelbar nach dieser Periode werden die Test-Verbindungen entweder in Kochsalzlösung oder in 3Xiger Maisstärke-Suspension in 5%igem wässerigem Polyäthylenglykol-400, welches auf 10 ml einen Tropfen Polyäthylen-20- sorbitanmonooleat enthält, entweder oral oder intraperitoneal vorabreicht. […] Diese erfindungsgemässe Verbindung zeigt einen einzigartigen Wirkungsmechanismus.

[1] = tested on: präsynaptischerc(-noradrenergischer Blocker); experiment: Presynaptic alpha-noradrenergic blockade (statement, no method); conditions: compared in kind with Mianserin
[2] = tested on: Totenkopf-Aeffchen (squirrel monkeys); experiment: Conditioned shock avoidance (Skinner cage) in squirrel monkeys; format: in vivo; conditions: oral in 0,9%iger wässeriger Kochsalzlösung, doses down to 2,5 mg/kg/Tag; four-hour session
Description: In einem anderen Test werden Totenkopf-Aeffchen (squirrel monkeys) durch Training dazugebracht, den Hebel in einem solchen Skinner-Käfig zu drücken, um dem elektrischen Schock, der auf die Füsse durch das Bodengitter verabreicht wird, auszuweichen. Jeder Tastendruck verschiebt den elektrischen Schock um 20 Sekunden. Versäumt der Affe innerhalb von 20 Sekunden die Taste zu drücken, so wird er kurze (0,5 Sekunden) elektrische Schocks alle 20 Sekunden bis zu seinem nächsten Tastendruck erleiden. Unter Kontrollbedingungen drücken die Affen den Hebel mit einer verhältnismässig stetigen Geschwindigkeit, so dass sie selten mehr als 6 Schocks während einer vierstündigen Versuchsperiode erhalten. Man bestimmt die Anzahl der Vermeidungsreaktionen sowie die Anzahl der erhaltenen Schocks. […] Der Wirkstoff wird in niedrigen Dosen bis hinunter zu 2,5 mg/kg/Tag verabreicht. Die Untersuchung zwecks Gewinnung von Kontrollwerten wird unter Verwendung von Kochsalzlösung allein, ein Tag vor der Untersuchung der Wirkstoffe, durchgeführt.

| Compound | Aufnahmehemmer biogener Amine (biogener Amine) | antihistaminische Wirkung (antihistaminische) | anticholinergische Wirkung (anticholinergische) | Zunahme der Schockvermeidungsreaktion, comparison with Methylphenidat (männlichen Albinoratten; compared with 5 mg/kg/Tag Methylphenidat intraperitoneal) | Schockvermeidungsreaktion der Ratte (männlichen Albinoratten; intraperitoneal) | präsynaptischerc(-noradrenergischer Blocker) [1] | Anzahl der erlittenen Schocks [2] | Ausmass der Vermeidungsreaktionen [2] | Zunahme der Schockvermeidungsreaktion (männlichen Albinoratten; 5 mg/kg/Tag, intraperitoneal) |
| --- | --- | --- | --- | --- | --- | --- | --- | --- | --- |
| O=C1NCCN1C1CCN(CCC2COc3ccccc3O2)CC1 (racemic) [1-[1-[2-(1,4-Benzodioxan-2-yl)-äthyl]-4-piperidyl]-2-imidazolidinon] | kein Aufnahmehemmer biogener Amine | noch eine antihistaminische Wirkung | weder eine anticholinergische | vorteilhaft | erhöht signifikant | kein präsynaptischerc(-noradrenergischer Blocker | – | – | – |
| O=C1NCCN1C1CCN(CC[C@H]2COc3ccccc3O2)CC1 [1-(S)-Hydrobromid] | – | – | – | – | erhöht signifikant | – | positive Aenderungen | positive Aenderungen | – |
| COC(=O)C(c1ccccc1)C1CCCCN1 (stereo not shown) [Methylphenidat, reference compound] | – | – | – | – | – | – | – | – | Zunahme der Schockvermeidungsreaktion |
